ChEMBL document CHEMBL6177997, “Design, Synthesis, and Evaluation of Novel ROCK Inhibitors for Glaucoma Treatment: Insights into In Vitro and In Vivo Efficacy and Safety” (J Med Chem, 2025)
Activity calls are given as the source filed them. The calls are words filed in the database; no cut-off is given here.

Key:
[1] = target: Rho-associated protein kinase 1 (Homo sapiens, UniProt Q13464); assay: Inhibition of ROCK1 (unknown origin) incubated for 40 mins in presence of ATP by ADP-glo assay
[2] = target: Rho-associated protein kinase 2 (Homo sapiens, UniProt O75116); assay: Inhibition of ROCK2 (unknown origin) incubated for 40 mins in presence of ATP by ADP-glo assay
[3] = target: MAP kinase-interacting serine/threonine-protein kinase 2 (Homo sapiens) (UniProt Q9HBH9); assay: Inhibition of MNK2 (unknown origin) at 5 uM preincubated for 10 mins followed by substrate addition and measured after 60 mins by ADP-glo kinase assay relative to control; conditions: time 70.0 min
[4] = target: MAP kinase-interacting serine/threonine-protein kinase 1 (Homo sapiens, UniProt Q9BUB5); assay: Inhibition of MNK1 (unknown origin) at 5 uM preincubated for 10 mins followed by substrate addition and measured after 60 mins by ADP-glo kinase assay relative to control; conditions: time 70.0 min
[5] = Induction of apoptosis in H2O2-induced human HTM cells at 1 uM pretreated with compound for 1 hr followed by H2O2 induction and measured after 2 hrs by Annexin V AF647/PI staining based flow cytometry analysis (reference value: 13.47%); type: functional; conditions: time 3 hrs
[6] = tested on: HTM; assay: Induction of F-actin depolymerization in human HTM cells at 5 uM incubated for 4 hrs by rhodamine-phalloidin staining based analysis; type: cell-based
[7] = tested on: HTM; assay: Inhibition of TGF-beta2 induced alpha-SMA expression in human HTM cells at 1 uM pretreated with compound for 2 hrs followed by TGF-beta2 induction and measured after 24 hrs; type: functional, cell-based; conditions: time 26.0 hrs
[8] = tested on: HTM; assay: Inhibition of H2O2-induced ROS production in human HTM cells assessed as decrease in green fluorescence at 1 uM preincubated for 1 hrs followed by H2O2 induction for 2 hrs and measured after 30 mins by DCFH-DA based fluorescence microscopic analysis; type: functional, cell-based; conditions: time 3.5 hrs
[9] = tested on: HTM; assay: Inhibition of paxillin expression in human HTM cells at 5 uM; type: functional, cell-based
[10] = tested on: Mitochondrial membrane; assay: Induction of mitochondrial membrane potential in human HTM cells at 1 uM incubated for 24 hrs by JC-1 staining based flow cytometry analysis
[11] = tested on: HTM; assay: Inhibition of TGF-beta2 induced collagen 1A expression in human HTM cells at 1 uM pretreated with compound for 2 hrs followed by TGF-beta2 induction and measured after 24 hrs; type: functional, cell-based; conditions: time 26.0 hrs
[12] = tested on: HTM; assay: Induction of morphological changes in human HTM cells at 3 uM incubated for 10 hrs by light microscopic analysis; type: functional, cell-based

Sequence of Rho-associated protein kinase 2 (O75116 whole entry): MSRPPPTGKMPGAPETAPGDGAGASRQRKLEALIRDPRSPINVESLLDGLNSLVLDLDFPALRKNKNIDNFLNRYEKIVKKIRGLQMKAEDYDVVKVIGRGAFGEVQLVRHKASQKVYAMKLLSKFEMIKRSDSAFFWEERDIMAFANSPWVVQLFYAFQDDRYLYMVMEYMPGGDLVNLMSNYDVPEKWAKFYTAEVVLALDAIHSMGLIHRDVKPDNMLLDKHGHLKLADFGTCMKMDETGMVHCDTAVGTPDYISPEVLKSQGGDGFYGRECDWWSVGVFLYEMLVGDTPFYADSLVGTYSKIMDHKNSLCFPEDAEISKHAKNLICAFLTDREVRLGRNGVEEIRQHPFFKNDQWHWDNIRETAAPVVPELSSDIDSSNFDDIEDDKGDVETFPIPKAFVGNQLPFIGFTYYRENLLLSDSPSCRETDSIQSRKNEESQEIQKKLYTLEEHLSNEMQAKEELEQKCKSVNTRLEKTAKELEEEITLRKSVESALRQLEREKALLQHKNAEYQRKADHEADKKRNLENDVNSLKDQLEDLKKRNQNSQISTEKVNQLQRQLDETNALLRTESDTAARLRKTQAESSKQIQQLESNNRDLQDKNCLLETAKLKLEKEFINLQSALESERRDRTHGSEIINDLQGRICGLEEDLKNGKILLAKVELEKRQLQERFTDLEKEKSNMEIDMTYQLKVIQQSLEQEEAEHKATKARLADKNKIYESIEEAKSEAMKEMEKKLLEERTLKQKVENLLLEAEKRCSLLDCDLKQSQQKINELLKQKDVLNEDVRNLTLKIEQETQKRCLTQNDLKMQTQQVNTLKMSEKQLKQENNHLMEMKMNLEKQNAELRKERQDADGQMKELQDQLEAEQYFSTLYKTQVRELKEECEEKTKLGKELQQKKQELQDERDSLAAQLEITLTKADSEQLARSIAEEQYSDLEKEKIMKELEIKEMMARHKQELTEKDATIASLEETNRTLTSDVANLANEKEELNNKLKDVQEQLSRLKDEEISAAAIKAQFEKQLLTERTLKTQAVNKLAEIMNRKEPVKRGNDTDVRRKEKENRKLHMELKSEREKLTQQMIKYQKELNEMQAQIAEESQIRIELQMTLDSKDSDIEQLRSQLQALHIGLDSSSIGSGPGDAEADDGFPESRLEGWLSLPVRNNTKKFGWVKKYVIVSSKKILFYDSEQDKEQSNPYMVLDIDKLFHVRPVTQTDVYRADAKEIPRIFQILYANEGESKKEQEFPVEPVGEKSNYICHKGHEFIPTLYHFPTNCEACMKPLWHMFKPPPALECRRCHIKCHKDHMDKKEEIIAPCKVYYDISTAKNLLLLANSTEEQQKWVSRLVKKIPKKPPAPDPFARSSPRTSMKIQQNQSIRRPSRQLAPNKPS
Sequence of MAP kinase-interacting serine/threonine-protein kinase 2 (Homo sapiens) (Q9HBH9 whole entry, looked up): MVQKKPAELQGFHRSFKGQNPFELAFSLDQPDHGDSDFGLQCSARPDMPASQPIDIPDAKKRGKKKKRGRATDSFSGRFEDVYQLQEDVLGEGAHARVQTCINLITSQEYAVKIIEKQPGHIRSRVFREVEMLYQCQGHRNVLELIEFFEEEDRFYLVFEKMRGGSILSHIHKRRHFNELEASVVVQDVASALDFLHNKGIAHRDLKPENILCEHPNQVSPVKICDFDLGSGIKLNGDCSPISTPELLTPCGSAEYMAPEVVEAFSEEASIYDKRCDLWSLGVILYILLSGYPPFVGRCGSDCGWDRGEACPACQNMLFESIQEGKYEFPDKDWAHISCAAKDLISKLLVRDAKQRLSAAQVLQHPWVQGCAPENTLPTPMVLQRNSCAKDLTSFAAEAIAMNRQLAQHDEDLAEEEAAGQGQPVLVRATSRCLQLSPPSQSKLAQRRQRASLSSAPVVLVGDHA
Sequence of Rho-associated protein kinase 1 (Q13464 whole entry): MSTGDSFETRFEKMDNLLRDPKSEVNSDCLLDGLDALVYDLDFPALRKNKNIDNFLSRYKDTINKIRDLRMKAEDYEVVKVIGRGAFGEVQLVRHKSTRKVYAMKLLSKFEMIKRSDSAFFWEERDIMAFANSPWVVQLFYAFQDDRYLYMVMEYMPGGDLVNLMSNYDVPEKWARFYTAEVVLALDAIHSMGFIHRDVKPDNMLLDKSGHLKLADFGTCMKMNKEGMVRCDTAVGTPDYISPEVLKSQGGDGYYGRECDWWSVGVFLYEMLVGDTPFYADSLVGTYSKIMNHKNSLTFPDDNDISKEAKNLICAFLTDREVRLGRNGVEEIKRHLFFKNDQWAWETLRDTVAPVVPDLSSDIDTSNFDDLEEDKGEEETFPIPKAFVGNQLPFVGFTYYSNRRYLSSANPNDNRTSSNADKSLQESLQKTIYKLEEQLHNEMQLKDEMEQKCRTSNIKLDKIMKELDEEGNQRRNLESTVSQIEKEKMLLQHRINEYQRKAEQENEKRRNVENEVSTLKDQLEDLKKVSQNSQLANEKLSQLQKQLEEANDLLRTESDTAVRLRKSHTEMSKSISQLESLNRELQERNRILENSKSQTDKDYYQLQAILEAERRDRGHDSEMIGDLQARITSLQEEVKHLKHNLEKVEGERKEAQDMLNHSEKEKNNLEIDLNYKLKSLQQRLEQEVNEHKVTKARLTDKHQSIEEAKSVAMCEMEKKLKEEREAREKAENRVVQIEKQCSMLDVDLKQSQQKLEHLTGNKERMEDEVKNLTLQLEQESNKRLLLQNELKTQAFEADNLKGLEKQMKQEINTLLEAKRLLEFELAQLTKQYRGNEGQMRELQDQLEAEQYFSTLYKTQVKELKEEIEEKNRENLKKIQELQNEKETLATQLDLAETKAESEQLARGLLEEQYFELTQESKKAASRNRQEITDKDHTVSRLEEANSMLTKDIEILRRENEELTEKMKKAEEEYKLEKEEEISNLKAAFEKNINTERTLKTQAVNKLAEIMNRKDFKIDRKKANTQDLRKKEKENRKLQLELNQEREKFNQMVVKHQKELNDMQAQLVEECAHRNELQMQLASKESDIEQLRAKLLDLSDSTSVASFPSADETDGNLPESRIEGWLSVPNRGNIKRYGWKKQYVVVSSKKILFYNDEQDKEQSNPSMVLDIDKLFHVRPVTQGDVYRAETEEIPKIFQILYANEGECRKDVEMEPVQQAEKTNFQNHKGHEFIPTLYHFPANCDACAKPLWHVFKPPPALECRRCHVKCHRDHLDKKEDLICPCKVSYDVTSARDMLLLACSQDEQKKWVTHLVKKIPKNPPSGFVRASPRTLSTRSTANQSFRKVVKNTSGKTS
Sequence of MAP kinase-interacting serine/threonine-protein kinase 1 (Q9BUB5 whole entry, looked up): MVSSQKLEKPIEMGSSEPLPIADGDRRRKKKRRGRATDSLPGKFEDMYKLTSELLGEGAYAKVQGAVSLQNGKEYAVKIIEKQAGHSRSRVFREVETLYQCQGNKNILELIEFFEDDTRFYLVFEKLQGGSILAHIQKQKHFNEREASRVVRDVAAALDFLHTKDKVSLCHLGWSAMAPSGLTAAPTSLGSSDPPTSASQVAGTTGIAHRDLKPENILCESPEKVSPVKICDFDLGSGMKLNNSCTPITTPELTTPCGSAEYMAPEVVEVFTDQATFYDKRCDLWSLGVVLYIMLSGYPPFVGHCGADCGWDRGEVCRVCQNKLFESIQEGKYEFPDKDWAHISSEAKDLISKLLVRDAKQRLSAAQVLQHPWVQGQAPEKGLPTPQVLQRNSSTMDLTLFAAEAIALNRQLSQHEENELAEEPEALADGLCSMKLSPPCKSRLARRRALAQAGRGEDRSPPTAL

Work on `COC(=O)c1ccc(C(=O)N2CCC(c3cc(-c4ccnc5[nH]ccc45)[nH]n3)CC2)cc1` yielded an IC50 [1] of 777 nM, an IC50 [2] of 401 nM and an inhibition [3] of 53.4%. For the same compound, the inhibition [4] was 77.1%.

In the case of `COc1ccc(CN2CCC(c3cc(-c4ccnc5[nH]ccc45)[nH]n3)CC2)cc1`, the IC50 [1] is reported as 183 nM, the IC50 [2] is reported as 118 nM and the inhibition [3] is reported as 67.4%. The inhibition [4] was 61.5%.

For `O=C(c1ccc(C(F)(F)F)cc1)N1CCC(c2cc(-c3ccnc4[nH]ccc34)[nH]n2)CC1`, the IC50 [1] was 1160 nM, the IC50 [2] was 939 nM and the inhibition [3] was 57.4%. It also gave an inhibition [4] of 81.3%.

Work on `COc1cc(C(=O)N2CCC(c3cc(-c4ccnc5[nH]ccc45)[nH]n3)CC2)cc(OC)c1OC` yielded an IC50 [1] of 1490 nM, an IC50 [2] of 1450 nM and an inhibition [3] of 74.4%. It also gave an inhibition [4] of 60.8%.

With `Cc1ccc(CN2CCC(c3cc(-c4ccnc5[nH]ccc45)[nH]n3)CC2)cc1` the IC50 [1] was greater than 5000 nM, the IC50 [2] was greater than 5000 nM and the inhibition [3] was 82.2%. The inhibition [4] was 76%.

`CC(=O)N1CCC(c2cc(-c3ccnc4[nH]ccc34)[nH]n2)CC1` gave an IC50 [1] of 1220 nM, an IC50 [2] of 980 nM and an inhibition [3] of 58%. It also gave an inhibition [4] of 41.8%.

`Cc1cccc(CN2CCC(c3cc(-c4ccnc5[nH]ccc45)[nH]n3)CC2)c1` gave an IC50 [1] greater than 5000 nM, an IC50 [2] greater than 5000 nM and an inhibition [3] of 79.9%. It also gave an inhibition [4] of 71.4%.

For `O=C(c1ccc([N+](=O)[O-])cc1)N1CCC(c2cc(-c3ccnc4[nH]ccc34)[nH]n2)CC1`, the IC50 [1] was 823 nM, the IC50 [2] was 699 nM and the inhibition [3] was 63.5%. The inhibition [4] was 78.6%.

`O=C(C1CCCCC1)N1CCC(c2cc(-c3ccnc4[nH]ccc34)[nH]n2)CC1` showed an IC50 [1] of 1720 nM, an IC50 [2] of 2110 nM and an inhibition [3] of 14.6%. The inhibition [4] was 20.8%.

Compound `CC(=O)c1ccc(C(=O)N2CCC(c3cc(-c4ccnc5[nH]ccc45)[nH]n3)CC2)cc1` has an IC50 [1] of 512 nM, an IC50 [2] of 468 nM and an inhibition [3] of 60.9%. It also gave an inhibition [4] of 71.7%.

With `C[C@H]1CNCCCN1S(=O)(=O)c1cccc2cncc(F)c12` the Activity [5] was 39.46%, the Activity [6] was “Active” and the inhibition [7] was “Active”. The inhibition [8] was “Active”, the inhibition [9] was “inactive” and the Activity [10] was “inactive”. The inhibition [11] was “Active” and the Activity [12] was “Active”.

With `COc1cccc(C(=O)N2CCC(c3cc(-c4ccnc5[nH]ccc45)[nH]n3)CC2)c1` the IC50 [1] was 805 nM, the IC50 [2] was 577 nM and the inhibition [3] was 34.3%. For the same compound, the inhibition [4] was 52.5%.

Work on `Cc1ccc(C(=O)N2CCC(c3cc(-c4ccnc5[nH]ccc45)[nH]n3)CC2)cc1` yielded an IC50 [1] of 773 nM, an IC50 [2] of 484 nM and an inhibition [3] of 52.2%. The inhibition [4] was 74.4%.

Work on `COc1cccc(CC(=O)N2CCC(c3cc(-c4ccnc5[nH]ccc45)[nH]n3)CC2)c1` yielded an IC50 [1] of 350 nM, an IC50 [2] of 305 nM and an inhibition [3] of 62.7%. The inhibition [4] was 41.6%.

Work on `O=C(CC1CC1)N1CCC(c2cc(-c3ccnc4[nH]ccc34)[nH]n2)CC1` yielded an IC50 [1] of 1180 nM, an IC50 [2] of 787 nM and an inhibition [3] of 46.5%. The inhibition [4] was 39.3%.

`N#CCN1CCC(c2cc(-c3ccnc4[nH]ccc34)[nH]n2)CC1` gave an IC50 [1] of 261 nM, an IC50 [2] of 130 nM and an inhibition [3] of 84.4%. It also gave an inhibition [4] of 71.4%.

Compound `O=S(=O)(F)N1CCC(c2cc(-c3ccnc4[nH]ccc34)[nH]n2)CC1` has an IC50 [1] of 229 nM, an IC50 [2] of 329 nM and an inhibition [3] of 86.7%. The inhibition [4] was 68.3%.

For `COC(=O)c1cccc(CN2CCC(c3cc(-c4ccnc5[nH]ccc45)[nH]n3)CC2)c1`, the IC50 [1] was 570 nM, the IC50 [2] was 390 nM and the inhibition [3] was 70.9%. It also gave an inhibition [4] of 61.6%.

`COc1ccc(CN2CCC(c3cc(-c4ccnc5[nH]ccc45)[nH]n3)CC2)cc1OC` showed an IC50 [1] of 241 nM, an IC50 [2] of 150 nM and an inhibition [3] of 66.1%. For the same compound, the inhibition [4] was 65.2%.

Work on `O=C(Cc1ccccc1)N1CCC(c2cc(-c3ccnc4[nH]ccc34)[nH]n2)CC1` yielded an IC50 [1] of 432 nM, an IC50 [2] of 433 nM and an inhibition [3] of 72.2%. The inhibition [4] was 49.7%.

With `COc1ccc(CC(=O)N2CCC(c3cc(-c4ccnc5[nH]ccc45)[nH]n3)CC2)cc1` the IC50 [1] was 813 nM, the IC50 [2] was 486 nM and the inhibition [3] was 4.2%. For the same compound, the inhibition [4] was 8.8%.

`O=C(C1CCC1)N1CCC(c2cc(-c3ccnc4[nH]ccc34)[nH]n2)CC1` gave an IC50 [1] of 846 nM, an IC50 [2] of 1050 nM and an inhibition [3] of 42.3%. The inhibition [4] was 39.9%.

With `FC(F)(F)c1cccc(CN2CCC(c3cc(-c4ccnc5[nH]ccc45)[nH]n3)CC2)c1` the IC50 [1] was 1180 nM, the IC50 [2] was 969 nM and the inhibition [3] was 57.2%. It also gave an inhibition [4] of 50.9%.

With `O=C(c1ccc(F)cc1)N1CCC(c2cc(-c3ccnc4[nH]ccc34)[nH]n2)CC1` the IC50 [1] was 821 nM, the IC50 [2] was 833 nM and the inhibition [3] was 47.4%. The inhibition [4] was 61.1%.

Work on `Cc1ccc(S(=O)(=O)N2CCC(c3cc(-c4ccnc5[nH]ccc45)[nH]n3)CC2)cc1` yielded an IC50 [1] greater than 10000 nM, an IC50 [2] greater than 10000 nM and an inhibition [3] of 6.9%. The inhibition [4] was 6.4%.

For `C=CC(=O)N1CCC(c2cc(-c3ccnc4[nH]ccc34)[nH]n2)CC1`, the IC50 [1] was 791 nM, the IC50 [2] was 553 nM and the inhibition [3] was 61%. It also gave an inhibition [4] of 56%.

In the case of `Fc1ccc(CN2CCC(c3cc(-c4ccnc5[nH]ccc45)[nH]n3)CC2)cc1F`, the IC50 [1] is reported as 425 nM, the IC50 [2] is reported as 295 nM and the inhibition [3] is reported as 78.8%. The inhibition [4] was 71.1%.

Work on `O=C(c1ccc(F)c(F)c1)N1CCC(c2cc(-c3ccnc4[nH]ccc34)[nH]n2)CC1` yielded an IC50 [1] of 699 nM, an IC50 [2] of 907 nM and an inhibition [3] of 53.3%. The inhibition [4] was 67.2%.

`Fc1cccc(CN2CCC(c3cc(-c4ccnc5[nH]ccc45)[nH]n3)CC2)c1` showed an IC50 [1] of 295 nM, an IC50 [2] of 338 nM and an inhibition [3] of 76.8%. It also gave an inhibition [4] of 69.9%.

`O=C(c1cccc(F)c1)N1CCC(c2cc(-c3ccnc4[nH]ccc34)[nH]n2)CC1` showed an IC50 [1] of 842 nM, an IC50 [2] of 542 nM and an inhibition [3] of 52.1%. It also gave an inhibition [4] of 66.6%.

Compound `O=C(c1ccc(Cl)cc1)N1CCC(c2cc(-c3ccnc4[nH]ccc34)[nH]n2)CC1` has an IC50 [1] of 899 nM, an IC50 [2] of 369 nM and an inhibition [3] of 58.4%. For the same compound, the inhibition [4] was 82.2%.

With `COc1ccc(C(=O)N2CCC(c3cc(-c4ccnc5[nH]ccc45)[nH]n3)CC2)cc1` the IC50 [1] was 829 nM, the IC50 [2] was 492 nM and the inhibition [3] was 54.7%. The inhibition [4] was 75.3%.

Compound `CC(=O)c1cccc(CN2CCC(c3cc(-c4ccnc5[nH]ccc45)[nH]n3)CC2)c1` has an IC50 [1] of 895 nM, an IC50 [2] of 823 nM and an inhibition [3] of 89%. The inhibition [4] was 69.2%.

`COc1ccc(C(=O)N2CCC(c3cc(-c4ccnc5[nH]ccc45)[nH]n3)CC2)cc1OC` showed an IC50 [1] of 696 nM, an IC50 [2] of 362 nM and an inhibition [3] of 59.7%. For the same compound, the inhibition [4] was 73%.

`O=C(C1CCCC1)N1CCC(c2cc(-c3ccnc4[nH]ccc34)[nH]n2)CC1` showed an IC50 [1] of 1980 nM, an IC50 [2] of 3880 nM and an inhibition [3] of 44.4%. It also gave an inhibition [4] of 47.5%.

With `O=C(C1CC1)N1CCC(c2cc(-c3ccnc4[nH]ccc34)[nH]n2)CC1` the IC50 [1] was 1010 nM, the IC50 [2] was 1070 nM and the inhibition [3] was 42.5%. The inhibition [4] was 40.9%.

Work on `c1ccc(CN2CCC(c3cc(-c4ccnc5[nH]ccc45)[nH]n3)CC2)cc1` yielded an IC50 [1] of 197 nM, an IC50 [2] of 172 nM and an inhibition [3] of 82.4%. It also gave an inhibition [4] of 73.2%.

With `CCS(=O)(=O)N1CCC(c2cc(-c3ccnc4[nH]ccc34)[nH]n2)CC1` the IC50 [1] was 286 nM, the IC50 [2] was 158 nM and the inhibition [3] was 22.4%. The inhibition [4] was 16%.

With `O=S(=O)(C1CC1)N1CCC(c2cc(-c3ccnc4[nH]ccc34)[nH]n2)CC1` the IC50 [1] was 489 nM, the IC50 [2] was 1070 nM and the inhibition [3] was 73.4%. For the same compound, the inhibition [4] was 63.6%.

With `c1ccc(Oc2cccc(CN3CCC(c4cc(-c5ccnc6[nH]ccc56)[nH]n4)CC3)c2)cc1` the IC50 [1] was 1340 nM, the IC50 [2] was 1060 nM and the inhibition [3] was 73.5%. For the same compound, the inhibition [4] was 68.1%.
